This experiment has as its target T1, GAL4 DBD-CfEcR(DEF)/VP16AD-MmRXRE (Choristoneura fumiferana, UniProt O77240).
T1 sequence (O77240 1-513): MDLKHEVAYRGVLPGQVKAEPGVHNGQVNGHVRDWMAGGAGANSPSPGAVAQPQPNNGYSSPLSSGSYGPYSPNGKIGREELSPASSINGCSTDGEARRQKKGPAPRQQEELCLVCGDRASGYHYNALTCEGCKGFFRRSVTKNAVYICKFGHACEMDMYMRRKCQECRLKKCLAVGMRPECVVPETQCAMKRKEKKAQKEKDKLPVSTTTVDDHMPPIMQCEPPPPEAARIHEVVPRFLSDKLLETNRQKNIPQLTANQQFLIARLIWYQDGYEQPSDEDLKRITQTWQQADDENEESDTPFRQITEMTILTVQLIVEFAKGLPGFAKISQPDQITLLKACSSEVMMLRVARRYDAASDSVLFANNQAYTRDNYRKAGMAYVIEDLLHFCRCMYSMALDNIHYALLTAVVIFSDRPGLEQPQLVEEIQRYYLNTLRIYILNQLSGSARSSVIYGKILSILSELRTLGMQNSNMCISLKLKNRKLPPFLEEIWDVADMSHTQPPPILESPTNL
Briefly: cell-based. The note with it: for fold induction at 33 µM: CHO, read-out: Fold Induction Average, 13B3 Assay (33 μM); for 13B3 Rel Max FI: maximum fold induction at any concentration relative to that of GS-E ligand. In outline: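 Stable CHO clone 13B3 expressing GAL4 DBD-CfEcR(DEF) and VP16AD-mouse RXR(DE) with GAL4 RE-luciferase reporter. Ligands tested at 8 concentrations, 33–0.01 μM; luciferase read 48 h after treatment. Fold induction versus DMSO; BC50 from three-parameter logistic fit.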

The record followed here is patent US8129355B2, “Ketone ligands for modulating the expression of exogenous genes via an ecdysone receptor complex” (priority 2002, dated 2012).

One may read the EC50 as the concentration that produces a half-maximal response.

As for `COc1cccc(C(=O)C2(NC(=O)c3cccc(OC)c3C)CCCCC2)c1` [Example 4], the EC50 amounted to 3.46 µM, the fold induction at 33 µM stood at 45 and the “13B3 Rel Max FI” value is given as 0.64.

As to `COc1cccc(C(=O)NC2(C(=O)c3cccc(C)c3)CCCCC2)c1C` [Example 7], the concentration giving a half-maximal response (EC50) turned out to be 6.73 µM, the fold induction at 33 µM amounted to 3100 and the “13B3 Rel Max FI” value is 0.55.

As for `COc1cccc(C(=O)NC2(C(=O)c3cc(C)cc(C)c3)CCCC2)c1C` [Example 10], the response was half-maximal at 3.27 µM (EC50), the fold induction at 33 µM is 32700 and the “13B3 Rel Max FI” value is reported as 0.71.

Take `COc1cccc(C(=O)NC2(C(=O)c3cc(C)cc(C)c3)CCCCC2)c1C` [Example 11]: the concentration giving a half-maximal response (EC50) stood at 1.8 µM, the fold induction at 33 µM is 94700 and the “13B3 Rel Max FI” value stood at 1.15.

As to `COc1cccc(C(=O)NC(C)(Cc2ccccc2)C(=O)c2cc(C)cc(C)c2)c1C` (stereo not shown) [Example 12], the EC50 is more than 33 µM, the fold induction at 33 µM turned out to be 72 and the “13B3 Rel Max FI” value came out at 0.00.

Regarding `COc1cccc(C(=O)NC2(C(=O)c3cc(C)cc(C)c3)CC2)c1C` [Example 13], the EC50 was more than 33 µM, the fold induction at 33 µM is 3 and the “13B3 Rel Max FI” value is given as 0.00.

As for `COc1cccc(C(=O)NC2(C(=O)c3cc(C)cc(C)c3)CCC2)c1C` [Example 14], it took 6.6 µM to reach a half-maximal effect (EC50), the fold induction at 33 µM was determined as 1024 and the “13B3 Rel Max FI” value is 0.33.

In the case of `COc1cccc(C(=O)NC2(C(=O)c3ccc(C)cc3)CCCCC2)c1C` [Example 15], it took 4.11 µM to reach a half-maximal effect (EC50), the fold induction at 33 µM is 371 and the “13B3 Rel Max FI” value was 0.09.

With `COc1cccc(C(=O)NC2(C(=O)c3ccc(F)c(C)c3)CCCC2)c1C` [Example 17], the EC50 worked out at 4.51 µM, the fold induction at 33 µM amounted to 1190 and the “13B3 Rel Max FI” value amounted to 0.01.

With `COc1cccc(C(=O)NC2(C(=O)c3ccc(F)c(C)c3)CCCCC2)c1C` [Example 18], the EC50 turned out to be 3.96 µM, the fold induction at 33 µM is 50200 and the “13B3 Rel Max FI” value worked out at 0.29.

`COc1cccc(C(=O)NC(C)(C(=O)c2cc(C)cc(C)c2)C(C)C)c1C` (stereo not shown) [Example 20]: it took 4 µM to reach a half-maximal effect (EC50) and the “13B3 Rel Max FI” value came out at 0.92.

Regarding `CCc1c(OC)cccc1C(=O)NC1(C(=O)c2ccccc2)CCCC1` [Example 21], the EC50 is more than 33 µM, the fold induction at 33 µM is 2 and the “13B3 Rel Max FI” value turned out to be 0.00.

In the case of `CCc1c(C(=O)NC2(C(=O)c3ccccc3)CCCC2)ccc2c1OCCO2` [Example 22], the half-maximal effective concentration (EC50) was more than 33 µM, the fold induction at 33 µM was found to be 4 and the “13B3 Rel Max FI” value was found to be 0.00.

Consider `COc1cccc(C(=O)NC2(C(=O)c3cccc(C)c3)CCOCC2)c1C` [Example 25], for which the EC50 was more than 33 µM, the fold induction at 33 µM was 117 and the “13B3 Rel Max FI” value was 0.00.

As for `COc1cccc(C(=O)NC2(C(=O)c3cccc(C)c3)CCSCC2)c1C` [Example 26], the EC50 was approximately 20 µM and the “13B3 Rel Max FI” value stood at 0.11.

For `COc1cccc(C(=O)NC2(C(=O)c3cc(C)cc(C)c3)CCOCC2)c1C` [Example 27], the concentration giving a half-maximal response (EC50) is approximately 20 µM, the fold induction at 33 µM amounted to 31600 and the “13B3 Rel Max FI” value is on record as 0.36.

`COc1cccc(C(=O)NC2(C(=O)c3cc(C)cc(C)c3)CCSCC2)c1C` [Example 28]: the concentration giving a half-maximal response (EC50) is 3.25 µM, the fold induction at 33 µM is 3180 and the “13B3 Rel Max FI” value amounted to 0.74.

Consider `COc1cccc(C(=O)NC2(C(=O)c3cc(C)cc(C)c3)CCC3(CC2)OCCO3)c1C` [Example 29], for which the concentration giving a half-maximal response (EC50) is more than 33 µM, the fold induction at 33 µM was determined as 5 and the “13B3 Rel Max FI” value is listed as 0.00.

Turning to `COc1ccccc1C(=O)C(C)(NC(=O)c1cccc(OC)c1C)C(C)C` (stereo not shown) [Example 30], the EC50 is more than 33 µM, the fold induction at 33 µM came out at 133 and the “13B3 Rel Max FI” value turned out to be 0.00.
